Results: patent US11213559B2, “Formulation for treatment of irritable bowel disease” (ABOCA S.P.A. SOCIETA′ AGRICOLA, priority 2012, dated 2022)

What was measured:
[1] = system: colitis induced by acetic acid; test: model of colitis induced by acetic acid in rats; assay type: in vivo, rat; conditions: average ± SEM
Protocol: To test in vivo the efficacy of the composition of the invention, said composition was formulated in capsules and was assessed in terms of its ability to protect the susceptibility of the intestinal mucosa to irritating stimuli. Based on the presumed mechanism of the product to act on the inflammatory component of IBS (supported only recently by the literature) by means of a local, indirect protective and anti-inflammatory action also stemming from mucoadhesion, an experimental model of inflammatory colitis, not specific for IBS, was selected.
The study was carried out on a model of colitis induced by acetic acid, as described by McPherson B R, Pfeiffer C J (1978) Experimental Production of Diffuse Colitis in Rats. Digestion;17:135-150; Mousavizadeh K, Rahimian R, Fakhfouri G, Aslani F S, Ghafourifar P. (2009) Anti-inflammatory effects of 5-HT receptor antagonist, tropisetron on experimental colitis in rats. Eur J Clin Invest.;39(5):375-83; Noronha-Blob L, Lowe V C, Muhlahauser R O, Burch R M. (1993) NPC 15669, an inhibitor of neutrophil recruitment, is efficacious in acetic acid-induced colitis in rats. Gastroenterology, 104:1021-9.
Each group was formed by 10 rats in accordance with the following schema • 1. Rats without colitis, treated with vehicle 10 ml/kg, (p.o.); • 2. Rats with colitis, treated with vehicle 10 ml/kg, (p.o.); • 3. Rats with colitis, treated with the composition of the invention, (p.o.); • 4. Rats with colitis, treated with dexamethasone, (p.o) as reference. Macroscopic and microscopic parameters were measured.
In particular, the macroscopic damage to the colon, the colon index (mg of colon/grams of rat) and the activity of myeloperoxidase, an enzyme contained in the intracellular azurophilic granules of the polymorphonuclear leukocytes (PMNs), which can therefore be used as an indicator of the accumulation of the migrated neutrophils in the tissues during an inflammatory process, are shown.
To verify the effectiveness of the use of the incense ingredient in the formulations, the same experiment of inflammatory colitis induced by acetic acid was carried out with a formulation devoid of incense (ABO-INT-10-2), which corresponds to the formulation Abo-INT 10 (general formulations on page 16), devoid of incense.

ileum = test: protective effect on intestinal mucosa in Ussing chamber, ileum; assay type: in vivo, rat; conditions: isolated (stress) rats, composition 500 mg/kg, dexamethasone 1 mg/kg intragastrically, average ±SD
Protocol: (§1) The experiment was conducted in order to verify the effects of the tested substances on the artificially damaged intestinal mucosa ex vivo (for example hydrochloric acid).
(§2) […] male Sprague Dawley rats weighing approximately 200-250 g were used for the test.
(§3) 4 groups of 8 rats A, B, C, D were formed, respectively containing untreated rats, rats treated with 1.0 ml saline solution intragastrically, rats treated with 1.0 ml (500 mg/kg of body weight) of composition of the invention intragastrically, and rats treated with 1.0 ml of dexamethasone (1 mg/kg of body weight) intragastrically.
(§4) The animals in groups A, B, C and D were deprived of food for 18 hours.
Four rats per group were then anaesthetised 50 minutes after the above-indicated administration by means of intraperitoneal injection and were kept in a heated atmosphere.
A sample of the ileum was then dissected from these rats and mounted between the two half-chambers of the Ussing chamber and damage was induced using hydrochloride (pH 8.0; pH 6.5). […]
(§5) The ddp in mV through the mucosal membrane was measured directly as well as the short-circuit current, and these were monitored for 15 minutes whilst the transmembrane resistance was calculated in ohm x cm^2 using Ohm's law. […]
(§6) The system was then stabilised for 10 minutes and the same parameters as indicated above were then measured for 15 minutes. […]

duodenum = test: protective effect on intestinal mucosa in Ussing chamber, duodenum; assay type: in vivo, rat; conditions: isolated (stress) rats, composition 500 mg/kg, dexamethasone 1 mg/kg intragastrically, average ±SD
Protocol: as §1, §2, §3, §4
Four rats per group were anaesthetised 30 minutes after the above-indicated administration by means of intraperitoneal injection and were kept in a heated atmosphere.
A sample of the duodenum was then dissected from these rats and mounted between the two half-chambers of the Ussing chamber and damage was induced using hydrochloride (pH 8.0; pH 5.5). […]
as §5, §6

CaCo-2 = test: antioxidant activity test (DCFH-DA, oxidative stress by oxygenated water); assay type: cell-based, human; conditions: 0.15 mg/ml
Protocol: In order to verify the antioxidant power of the composition of the invention in a biological system similar to the intestinal epithelium (CaCo-2), the following tests were carried out: Evaluation of the antioxidant activity of the sample on human cells subject to chemical, progressive oxidative stress. The assessment of the antioxidant action is acquired from the quantification of the formation of free radicals in cells exposed to the sample and to oxidative stress. The antioxidant activity of the sample in analyses was evaluated by comparison with that of a safe hydrosoluble antioxidant, such as vitamin C. The protocol is based on the use of a fluorescent probe called 2′,7′-dichlorofluorescein diacetate (DCFH-DA), a non-fluorescent stable molecule that enters the cells, bonds to the membrane macromolecules, where it is hydrolysed from cytoplasmic esterases to give dichlorofluorescein (DCFH), a molecule that again is non-fluorescent. DCFH, in the presence of free radicals, is oxidised, forming a highly fluorescent molecule: DCF. The oxidative stress is induced via oxygenated water. The radicals produced constitutively from the cells with the addition of the sample, but without the addition of the oxidising agent, were also monitored as a negative control (absence of oxidant activity of the composition of the invention).

[2] = Table 1, rats with 4% acetic acid colitis, ABO/INT-10 1 g/kg, dexamethasone 1 mg/kg p.o.
[3] = Table 3, experiment with formulation devoid of incense, ABO/INT-10-2 1 g/kg, dexamethasone 1 mg/kg
[4] = Table 4, experiment with formulation devoid of incense, ABO/INT-10-2 1 g/kg, dexamethasone 1 mg/kg

| SMILES | Faecal excretion number [1, 2] | Faecal excretion weight [1, 2] | Body weight (g) Final ([1]; Table 1, rats with 4% acetic acid colitis, final, ABO/INT-10 1 g/kg, dexamethasone 1 mg/kg p.o.) | Macroscopic damage ([1]; Table 2, colon, rats with 4% acetic acid colitis, composition 1 g/kg, dexamethasone 1 mg/kg p.o.) | Colon index ([1]; Table 2, mg of colon/grams of rat, composition 1 g/kg, dexamethasone 1 mg/kg p.o.) | MPO (U/mg tissue) ([1]; Table 2, myeloperoxidase activity, after 24 hours, composition 1 g/kg, dexamethasone 1 mg/kg p.o.) | Defecations number [1, 3] | Defecations weight [1, 3] | Weight variation (g) [1, 3] | Colon index (mg/g) [1, 4] | MPO (U/mg tissue) [1, 4] | Macroscopic damage [1, 4] | average value of resistance of the ileum after induction of damage (ileum; Krebs buffer at pH 6.5) | average value of resistance of the ileum (ileum; physiological pH Krebs buffer, 50 minutes) | average value of resistance of the duodenum after induction of damage (duodenum; Krebs buffer at pH 5.5) | average value of resistance of the duodenum (duodenum; physiological pH Krebs buffer, 30 minutes) | % reduction of free radicals (CaCo-2; 30 min) | % reduction of free radicals (CaCo-2; 60 min) | % reduction of free radicals (CaCo-2; 90 min) | % reduction of free radicals (CaCo-2; 120 min) |
| --- | --- | --- | --- | --- | --- | --- | --- | --- | --- | --- | --- | --- | --- | --- | --- | --- | --- | --- | --- | --- |
| C[C@@H]1C[C@H]2[C@@H]3CCC4=CC(=O)C=C[C@]4(C)[C@@]3(F)[C@@H](O)C[C@]2(C)[C@@]1(O)C(=O)CO [Dexamethasone, dexamethasone] | 40.40 ± 8.035 | 9.440 ± 1.790 g | 214.3 ± 4.177 g | 4.417 ± 1.052 | 6.041 ± 0.341 mg/g | 15.387 ± 6.136 U/mg tissue | 42.10 ± 9.011 | 9.44 ± 1.79 g | 2.167 ± 1.493°°** g | 6.041 ± 0.341°** mg/g | 16.423 ± 5.9780°* U/mg tissue | 4.417 ± 1.052°°** | 39.7±8.1 ohm×cm^2 | 50.6±13.4 ohm×cm^2 | 48.0±12.7 ohm×cm^2 | 50.4±13.9 ohm×cm^2 |  |  |  |  |
| O=C1O[C@H]([C@@H](O)CO)C(O)=C1O [vitamin C] |  |  |  |  |  |  |  |  |  |  |  |  |  |  |  |  | 38% | 44.8% | 48% | 47% |
